Source: patent EP1477174B1, “Radioactive arsenic-containing compounds and their uses in the treatment of tumors” (TTY Biopharm Company Limited, priority 2003, dated 2004)
Several values for one entry are separate records, joined by “and”; a condition that tells them apart may be missing. Equal entries are not always repeated.

Assays:
[1] = system: relapsed acute promyelocytic leukemia; settings: cited from earlier work
liver tumor = settings: 2 mg/kg for 10 consecutive days (Lin et al. 1999); cited from earlier work
N1-S1 rat hepatoma cells [2] = assay: Therapeutic effect assessment: liver tumor direct injection, rats with liver tumors; type: in vivo, Spawn-Dawley rats; parameters: key to Response: Increase in Size of tumor (In%) is classified as "Poor Response"; decrease in size of tumorwithin 0%∼40% is classified as "MildResponse"; decrease in size of tumor to 50% or more or disappearance of tumor is classified as "Good Response."; settings: for Response / Survival time: 0.45 mg/kg direct into liver tumor, single animals
Method: (§1) When cultured to 1.5x10^6 cell/ml, 4x10^6 cell/0.06ml of N1-S1 cells were sampled and then implanted into Spawn-Dawley male rats (5-week-old, 150g) between the liver and liver capsule by surgery, and the wounds were closed by sutures. Rearing of the rats was continued for ten days, and ultrasonic scanning was used to detect any growth of liver tumor and tumor size. After scanning, animals that had developed liver tumors were used to conduct the experiments of tumor growth inhibition, and euthanasia was practiced on the rest of the rats.
The rats with liver tumors were subjected to surgery. After the locations of the liver tumors were found, the tumors were directly injected with normal saline, an injection containing arsenic trioxide without neutron irradiation treatment (concentration: 1 mg/ml; animal injection dosage: 0.45 mg/kg), and the injection prepared in Example 1 which contained radioactive arsenic trioxide having subjected to neutron irradiation treatment (radiation activity range: 2.77-3.25 mCi/ml; concentration: 1 mg/ml of concentration; and animal injection dosage: 0.45 mg/kg), respectively, once every week, twice in total.
(§2) Before injection, the size of the liver tumors was examined by ultrasonic scanning. Ultrasonic scanning was conducted in the first week, the second week, and the fifth week, respectively, after start of the injection to observe the change in size of the tumor. Finally, the rats were sacrificed for observing whether there was metastasis.

N1-S1 rat hepatoma cells [3] = assay: Therapeutic effect assessment: continuous tail vein injection, rats with liver tumors; type: in vivo, Spawn-Dawley rats; parameters: key to Response: Increase in size of tumor (In%) is classified as "Poor Response"; decrease in size of tumorwithin 0%∼40% is classified as "MildResponse"; decrease in size of tumor to 50% or more or disappearance of tumor is classified as "Good Response."; settings: for Response / Survival time: 0.45 mg/kg tail vein, continued for two weeks, single animals; for Effect on the inhibition of tumor growth (in words): continuous tail vein injection; for Survival of the rats (in words): tail vein injection, week 8
Method: as §1
The rats with liver tumors were given normal saline, an injection solution containing arsenic trioxide without neutron irradiation treatment (concentration: 1 mg/ml; animal injection dosage: 0.45 mg/kg), and the injection solution prepared in Example 1 which contained radioactive arsenic trioxide having subjected to neutron irradiation treatment(radioactivity range: 2.77-3.25 mCi/ml; concentration: 1 mg/ml; and animal injection dosage: 0.45 mg/kg), respectively, via tail vein injection, and the injection was continued for two weeks.
Before injection, the size of the liver tumors was examined by ultrasonic scanning. Ultrasonic scanning was conducted in the first week, the second week, and the fifth week, respectively, after start of the injection so as to observe the change in size of the tumor. Finally, the rats were sacrificed for observing whether there was metastasis.

N1-S1 rat hepatoma cells [4] = assay: Therapeutic effect assessment: hepatic artery single injection, rats with liver tumors; type: in vivo, Spawn-Dawley rats; settings: for Therapeutic effect (in words): hepatic artery single injection
Method: as §1
The blood vessels of the hepatic artery were dissected from the hepatic tissue of the rats by surgery, and normal saline, an injection solution containing arsenic trioxide without neutron irradiation treatment (concentration: 1 mg/ml; and animal injection dosage: 0.45 mg/kg), and the injection solution prepared in Example 1 which contained radioactive arsenic trioxide having subjected to neutron irradiation treatment (radioactivity range: 2.77-3.25 mCi/ml; concentration: 1 mg/ml; and animal injection dosage: 0.45 mg/kg dose), were injected respectively via the hepatic artery in single injections.
as §2

[5] = system: human cervical cancer cells; settings: in vitro and in vivo, cervical cancer (Yong-Jin Chun et al. 2002); cited from earlier work
[6] = Biodistribution test and radiation absorption dose (MIRD method) in rats with liver tumors; type: in vivo; settings: for Radiation absorption dose, Intestine / Radiation absorption dose, Kidney / Radiation absorption dose, Liver / Radiation absorption dose, Lung / Radiation absorption dose, Muscle / Radiation absorption dose, Spleen / Radiation absorption dose, Tumor: 0.45 mg/kg
Method: The hepatic artery was dissected from the hepatic tissue of the rats by surgery. A PE-10 tube was introduced into the hepatic artery, and the test solution containing neutron-irradiated arsenic trioxide as prepared in Example 1 was injected into the hepatic artery. The PE-10 tube was removed after injection, and a surgical thread was used to bind and fix the blood vessels, followed by suturing of the wound.
The test injection solution containing neutron-irradiated arsenic trioxide as prepared in Example 1 was injected into the tail vein using a syringe with needle no. 25.
A fixed amount of radioactive arsenic trioxide (radioactivity range: 2.77-3.25 mCi/ml, concentration: 1 mg/ml, animal injection dose: 0.45 mg/kg) prepared in Example 1 was injected into the rats with liver tumors through the hepatic artery and tail vein, respectively.
The rats were sacrificed by taking a large amount of blood from the heart at hours 2, 4, 16, 24 and 48, respectively, after injection, and the blood, hearts, lungs, livers, spleens, kidneys, intestines, bladders, muscles, and tumors were removed. These tissues or organs were placed in respective tubes, and their irradiation intensity was measured by a gamma counter (Wallac 1470 WIZARD) . The content percentage of arsenic trioxide per each gram of the tissue or organ was calculated using standard curve regression. There were two or three experimented rats in each experimental group.
Radioactive arsenic trioxide was injected respectively into the tail vein and hepatic artery of the rats by I.V. and I.H. The dosage was calculated using MIRD method, and the residence time in each of the organs and the tumors was calculated using Excel software. Finally, the radiation absorption dose in each of the organs or tissues and the tumors was calculated using MIROSE 3 software. Table 3. Radiation absorption dose in each of the organs or tissues and the tumors after injection of radioactive arsenic trioxide into the animals through the tail vein and hepatic artery, respectively, by I.V. and I.H.

[7] = 0.45 mg/kg hepatic artery single injection, single animals

Compound: S1[As]2S[As]3S[As]2S[As]13 [tetraarsenic tetraslfide]
- complete remission rates ([1]; other arsenic-containing substances (Wang Z.Y. 2001)): 84.9%

Compound: arsenic trioxide [reference compound]
- life of the mice extended to (liver tumor): 127.2%
- Response (N1-S1 rat hepatoma cells [2]): Poor and Good (decrease in size of tumor to 50% or more or disappearance of tumor is classified as "Good Response.") and Mild (decrease in size of tumorwithin 0%∼40% is classified as "MildResponse")
- Survival time (N1-S1 rat hepatoma cells [2]): >30 days
- Response (N1-S1 rat hepatoma cells [3]): Poor (3×) and Mild (decrease in size of tumorwithin 0%∼40% is classified as "MildResponse") (2×)
- Survival time (N1-S1 rat hepatoma cells [3]): 14 day (2×) and 42 day and 7 day and 40 day
- Effect on the inhibition of tumor growth (in words) (N1-S1 rat hepatoma cells [3]): not significant
- Survival of the rats (in words) (N1-S1 rat hepatoma cells [3]): still alive in week 8
- Response (N1-S1 rat hepatoma cells [4]; [7]): Mild (decrease in size of tumorwithin 0%∼40% is classified as "MildResponse") (2×) and Poor (2×)
- Survival time (N1-S1 rat hepatoma cells [4]; [7]): >42 day (2×) and 36 day and 39 day
- Therapeutic effect (in words) (N1-S1 rat hepatoma cells [4]): not satisfactory
- Effect of combined treatment with ionizing radiation (in words) [5]: synergistic effect
- Effect of combination with other drugs (in words) ([1]; combination with other drugs (such as GM-CSF), relapsed or ATRA resistant acute promyelocytic leukemia (Muto A et al. 2001)): synergistic therapeutic effect
- complete remission (CR) rate ([1]; intravenously at a dose of 10 mg/d, relapsed acute promyelocytic leukemia (Shen Z.X. et al. 1997)): 90%
- complete remission rate ([1]; low-dose, intravenously, daily dose of 0.08 mg/kg for 28 days (Shen Y et al. 2001)): 80%

Compound: radioactive arsenic trioxide
- Response (N1-S1 rat hepatoma cells [2]): Good (decrease in size of tumor to 50% or more or disappearance of tumor is classified as "Good Response.")
- Survival time (N1-S1 rat hepatoma cells [2]): >30 days
- Change of tumor size (in words) (N1-S1 rat hepatoma cells [2]; direct injection into the liver tumors, 4 weeks): the tumors in all of the animals shrank
- Response (N1-S1 rat hepatoma cells [3]): Good (decrease in size of tumor to 50% or more or disappearance of tumor is classified as "Good Response.")
- Survival time (N1-S1 rat hepatoma cells [3]): >56 days
- Effect on the inhibition of tumor growth (in words) (N1-S1 rat hepatoma cells [3]): most noticeable
- Survival of the rats (in words) (N1-S1 rat hepatoma cells [3]): all alive in week 8
- Response (N1-S1 rat hepatoma cells [4]; [7]): Good (decrease in size of tumor to 50% or more or disappearance of tumor is classified as "Good Response.")
- Survival time (N1-S1 rat hepatoma cells [4]; [7]): >42 days
- Tumor size After injection Week 2 (N1-S1 rat hepatoma cells [4]; [7]): Disappeared
- Tumor size After injection Week 5 (N1-S1 rat hepatoma cells [4]; [7]): Disappeared
- Therapeutic effect (in words) (N1-S1 rat hepatoma cells [4]): complete disappearance of the tumors in some of the animals 2 weeks after injection
- Radiation absorption dose, Intestine ([6]; IH (hepatic artery)): 0.23 mGy/MBq
- Radiation absorption dose, Kidney ([6]; IH (hepatic artery)): 0.28 mGy/MBq
- Radiation absorption dose, Liver ([6]; IH (hepatic artery)): 0.21 mGy/MBq
- Radiation absorption dose, Lung ([6]; IH (hepatic artery)): 0.56 mGy/MBq
- Radiation absorption dose, Muscle ([6]; IH (hepatic artery)): 0.12 mGy/MBq
- Radiation absorption dose, Spleen ([6]; IH (hepatic artery)): 0.95 mGy/MBq
- Radiation absorption dose, Tumor ([6]; IH (hepatic artery)): 21 mGy/MBq
- Radiation absorption dose, Intestine ([6]; IV (tail vein)): 0.16 mGy/MBq
- Radiation absorption dose, Kidney ([6]; IV (tail vein)): 0.25 mGy/MBq
- Radiation absorption dose, Liver ([6]; IV (tail vein)): 0.13 mGy/MBq
- Radiation absorption dose, Lung ([6]; IV (tail vein)): 0.47 mGy/MBq
- Radiation absorption dose, Muscle ([6]; IV (tail vein)): 0.06 mGy/MBq
- Radiation absorption dose, Spleen ([6]; IV (tail vein)): 0.76 mGy/MBq
- Radiation absorption dose, Tumor ([6]; IV (tail vein)): 4.26 mGy/MBq
- Contents of the radioactive arsenic trioxide in the heart, the lung, and the spleen ([6]; hepatic artery and tail vein injection, hours 2-48 (Figure 3)): 1-3 % ID/g
